Patent US9089507B2 (priority 2006, dated 2015)
Converted amounts (≈) assume the structure as drawn. Read-outs that look alike come from different tables or passages of the source.

Key:
[1] = in vivo; settings: female, CD-1, mouse, 32 mg/kg
[2] = female, CD-1, mouse, in vivo, 32 mg/kg
[3] = test system: B. anthracis spores; settings: mouse, in vivo
[4] = test system: B. anthracis; assay: microbe, parasite or virus in culture; type: cell-based, Bacillus anthracis

Work on `CN[C@H](CC(C)C)C(=O)N[C@H]1C(=O)N[C@@H](CC(N)=O)C(=O)N[C@H]2C(=O)N[C@H]3C(=O)N[C@H](C(=O)N[C@H](C(=O)O)c4cc(O)cc(O)c4-c4cc3ccc4O)[C@H](O[C@H]3C[C@](C)(N)[C@@H](O)[C@H](C)O3)c3ccc(c(Cl)c3)Oc3cc2cc(c3O[C@@H]2O[C@H](CO)[C@@H](O)[C@H](O)[C@H]2O[C@H]2C[C@](C)(NCc3ccc(-c4ccc(Cl)cc4)cc3)[C@@H](O)[C@H](C)O2)Oc2ccc(cc2Cl)[C@H]1O` [Oritavancin, N-(4-(4-chlorophenyl)benzyl)A82846B] yielded an AUC ([1]; ip) of 840 µg·h/mL, a Cmax ([1]; ip) of 95 µg/mL and an AUC ([1]; iv) of 950 µg·h/mL. For the same compound, the Cmax ([1]; iv) was 270 µg/mL, the “time-to-peak (Tmax)” value ([2]; ip) was 4 h and the “time plasma concentration remained above the MIC for the Ames strain” value ([2]; iv) was 24 to 48 h. The “time-to-peak (Tmax)” value ([2]; iv) was 0.25 h, the “spore/tissue load at the termination of the study” value [3] was ≤ 5×10^4 CFU/g tissue and the “MIC90 with polysorbate-80 lower than MIC90 in the absence of polysorbate-80” value [4] was 16 fold. For the same compound, the MIC90 ([4]; Bacillus anthracis) was 0.12 µg/mL (≈ 0.0669 µM).
